# Laboratory results published in US20230139171A1 (SITA Information Networking Computing UK Limited, priority 2019, published 2023).
# Counter-ions that a name gives are not always drawn.
# What was measured:
# Format in all cases: cell-based
# human TLR7 = biological target: T1, human TLR7 (Homo sapiens, UniProt Q9NYK1); test: TLR7 inhibition reporter assay (HEK-Blue cells, SEAP reporter, gardiquimod stimulation); conditions: HEK-Blue cells overexpressing human TLR7, SEAP reporter, gardiquimod 7.5 μM; read-out: TLR7 IC50
# T1 construct: host or cells: HEK-Blue cells
# T1 sequence (Q9NYK1 27-1049): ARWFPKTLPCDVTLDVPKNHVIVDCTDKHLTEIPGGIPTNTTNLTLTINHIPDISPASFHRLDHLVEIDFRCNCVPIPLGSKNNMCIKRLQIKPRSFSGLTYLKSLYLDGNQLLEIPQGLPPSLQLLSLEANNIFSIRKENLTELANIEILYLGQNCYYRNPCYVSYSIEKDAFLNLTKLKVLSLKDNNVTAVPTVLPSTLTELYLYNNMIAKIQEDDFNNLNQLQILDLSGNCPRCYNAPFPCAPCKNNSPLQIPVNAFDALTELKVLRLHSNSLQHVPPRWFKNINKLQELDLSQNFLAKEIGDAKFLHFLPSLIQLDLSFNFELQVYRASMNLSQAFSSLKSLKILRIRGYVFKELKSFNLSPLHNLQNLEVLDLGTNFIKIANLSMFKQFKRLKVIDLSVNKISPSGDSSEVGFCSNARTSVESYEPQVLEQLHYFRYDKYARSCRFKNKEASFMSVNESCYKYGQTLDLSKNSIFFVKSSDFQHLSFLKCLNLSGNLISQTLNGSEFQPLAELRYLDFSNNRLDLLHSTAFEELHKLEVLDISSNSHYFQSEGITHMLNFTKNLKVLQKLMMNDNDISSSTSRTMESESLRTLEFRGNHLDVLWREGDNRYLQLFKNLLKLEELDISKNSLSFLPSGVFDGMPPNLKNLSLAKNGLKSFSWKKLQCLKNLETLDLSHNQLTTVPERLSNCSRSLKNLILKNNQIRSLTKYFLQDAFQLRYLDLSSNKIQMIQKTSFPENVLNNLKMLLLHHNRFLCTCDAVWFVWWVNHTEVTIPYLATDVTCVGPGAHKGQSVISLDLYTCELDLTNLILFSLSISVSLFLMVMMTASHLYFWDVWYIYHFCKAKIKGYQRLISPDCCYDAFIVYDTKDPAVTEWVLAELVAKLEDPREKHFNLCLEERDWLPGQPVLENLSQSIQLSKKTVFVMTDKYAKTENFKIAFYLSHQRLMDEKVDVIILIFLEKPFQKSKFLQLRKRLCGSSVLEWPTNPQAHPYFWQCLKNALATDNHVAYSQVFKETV
# Outline: (§1)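 HEK-Blue cells overexpressing human TLR7, TLR8 or TLR9 carry a SEAP reporter driven by NF-κB/AP-1 sites. Compounds (0.05 nM–50 μM) were preincubated 30 min at room temperature, then cells were stimulated with gardiquimod 7.5 μM (TLR7), R848 15.9 μM (TLR8) or ODN2006 5 nM (TLR9) for 22 h at 37 °C.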
# human TLR9 = biological target: T2, human TLR9 (Homo sapiens, UniProt Q9NR96); test: TLR9 inhibition reporter assay (HEK-Blue cells, SEAP reporter, ODN2006 stimulation); conditions: HEK-Blue cells overexpressing human TLR9, SEAP reporter, ODN2006 5 nM
# T2 construct: host or cells: HEK-Blue cells
# T2 sequence (Q9NR96 26-1032): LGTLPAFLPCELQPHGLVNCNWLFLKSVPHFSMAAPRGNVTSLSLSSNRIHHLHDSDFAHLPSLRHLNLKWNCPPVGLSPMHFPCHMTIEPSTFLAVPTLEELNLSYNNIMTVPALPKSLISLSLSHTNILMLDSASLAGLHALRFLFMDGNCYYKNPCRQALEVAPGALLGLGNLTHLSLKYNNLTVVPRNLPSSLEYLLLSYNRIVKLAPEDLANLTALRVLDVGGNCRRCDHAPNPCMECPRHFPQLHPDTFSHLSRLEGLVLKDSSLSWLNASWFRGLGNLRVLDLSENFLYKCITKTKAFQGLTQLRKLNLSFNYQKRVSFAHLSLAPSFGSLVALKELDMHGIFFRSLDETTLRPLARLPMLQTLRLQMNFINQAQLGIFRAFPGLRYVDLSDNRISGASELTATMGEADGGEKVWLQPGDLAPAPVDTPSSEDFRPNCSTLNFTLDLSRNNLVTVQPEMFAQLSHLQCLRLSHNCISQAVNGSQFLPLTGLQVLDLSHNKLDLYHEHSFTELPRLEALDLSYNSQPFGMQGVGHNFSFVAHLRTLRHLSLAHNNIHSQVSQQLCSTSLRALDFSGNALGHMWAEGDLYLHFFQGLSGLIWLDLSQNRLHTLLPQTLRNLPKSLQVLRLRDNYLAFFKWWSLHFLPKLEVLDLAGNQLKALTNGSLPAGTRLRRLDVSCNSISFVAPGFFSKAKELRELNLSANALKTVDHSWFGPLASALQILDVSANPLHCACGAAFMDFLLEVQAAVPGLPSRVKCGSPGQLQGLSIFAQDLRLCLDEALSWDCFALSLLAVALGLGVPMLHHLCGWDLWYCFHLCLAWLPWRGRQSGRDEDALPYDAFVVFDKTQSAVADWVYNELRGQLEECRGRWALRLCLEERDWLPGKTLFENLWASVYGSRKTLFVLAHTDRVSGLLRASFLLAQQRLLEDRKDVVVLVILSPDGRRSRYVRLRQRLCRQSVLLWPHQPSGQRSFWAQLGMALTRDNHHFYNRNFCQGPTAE
# Outline: as §1
# human TLR8 = biological target: T3, human TLR8 (Homo sapiens, UniProt Q9NR97); test: TLR8 inhibition reporter assay (HEK-Blue cells, SEAP reporter, R848 stimulation); conditions: HEK-Blue cells overexpressing human TLR8, SEAP reporter, R848 15.9 μM; read-out: TLR8 IC50
# T3 construct: host or cells: HEK-Blue cells
# T3 sequence (Q9NR97 27-1041): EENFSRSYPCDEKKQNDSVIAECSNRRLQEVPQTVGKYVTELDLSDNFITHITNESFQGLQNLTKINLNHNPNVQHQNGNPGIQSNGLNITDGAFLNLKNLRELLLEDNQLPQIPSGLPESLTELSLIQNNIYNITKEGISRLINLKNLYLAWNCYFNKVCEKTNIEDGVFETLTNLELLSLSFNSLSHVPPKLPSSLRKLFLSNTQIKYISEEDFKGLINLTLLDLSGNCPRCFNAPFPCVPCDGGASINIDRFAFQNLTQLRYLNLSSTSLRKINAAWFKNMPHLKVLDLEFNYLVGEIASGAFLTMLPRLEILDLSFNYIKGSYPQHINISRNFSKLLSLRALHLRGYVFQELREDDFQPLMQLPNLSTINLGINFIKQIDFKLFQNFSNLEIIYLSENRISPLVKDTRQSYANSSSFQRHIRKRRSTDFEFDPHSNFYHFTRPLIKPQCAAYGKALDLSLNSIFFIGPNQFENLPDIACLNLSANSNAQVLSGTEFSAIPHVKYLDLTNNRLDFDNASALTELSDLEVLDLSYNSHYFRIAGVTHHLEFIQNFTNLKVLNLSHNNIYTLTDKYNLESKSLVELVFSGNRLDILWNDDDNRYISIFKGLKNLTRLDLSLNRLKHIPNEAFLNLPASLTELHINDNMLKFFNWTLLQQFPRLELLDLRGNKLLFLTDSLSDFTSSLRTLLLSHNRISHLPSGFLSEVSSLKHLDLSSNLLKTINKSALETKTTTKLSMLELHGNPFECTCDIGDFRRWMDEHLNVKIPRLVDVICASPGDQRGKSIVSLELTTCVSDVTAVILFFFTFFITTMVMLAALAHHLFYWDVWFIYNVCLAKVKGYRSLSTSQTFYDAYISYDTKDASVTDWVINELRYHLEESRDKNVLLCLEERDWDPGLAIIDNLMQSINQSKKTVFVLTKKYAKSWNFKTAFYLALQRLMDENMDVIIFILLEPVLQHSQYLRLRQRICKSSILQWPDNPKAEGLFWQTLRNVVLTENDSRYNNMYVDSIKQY
# Outline: as §1
SMILES,IC50 (human TLR7) [nM],IC50 (human TLR9) [nM],IC50 (human TLR8) [nM]
"Cc1c(-c2[nH]c3sc(N4CC5(CN(CC(C)C)C5)C4)nc3c2C(C)C)cn2ncnc2c1C [Example 300, 5-(7,8-dimethyl-[1,2,4]triazolo[1,5-a]pyridin-6-yl)-2-(6-isobutyl-2,6-diazaspiro[3.3]heptan-2-yl)-6-isopropyl-4H-pyrrolo[3,2-d]thiazole]",10.7,10100,3.24
"Cc1c(-c2[nH]c3sc(N4CC5(CN(CC6CCOCC6)C5)C4)nc3c2C(C)C)cn2ncnc2c1C [Example 301, 5-(7,8-dimethyl-[1,2,4]triazolo[1,5-a]pyridin-6-yl)-6-isopropyl-2-(6-((tetrahydro-2H-pyran-4-yl)methyl)-2,6-diazaspiro[3.3]heptan-2-yl)-4H-pyrrolo[3,2-d]thiazole]",7.77,12300,1.53
"Cc1c(-c2[nH]c3sc(N4CC5(CN(CC(C)(C)O)C5)C4)nc3c2C(C)C)cn2ncnc2c1C [Example 303, 1-(6-(5-(7,8-dimethyl-[1,2,4]triazolo[1,5-a]pyridin-6-yl)-6-isopropyl-4H-pyrrolo[3,2-d]thiazol-2-yl)-2,6-diazaspiro[3.3]heptan-2-yl)-2-methylpropan-2-ol]",7.99,26400,0.93
"Cc1c(-c2[nH]c3sc(N4CC5(CN(CCS(C)(=O)=O)C5)C4)nc3c2C(C)C)cn2ncnc2c1C [Example 304, 5-(7,8-dimethyl-[1,2,4]triazolo[1,5-a]pyridin-6-yl)-6-isopropyl-2-(6-(2-(methylsulfonyl)ethyl)-2,6-diazaspiro[3.3]heptan-2-yl)-4H-pyrrolo[3,2-d]thiazole]",8.2,35600,19.2
"Cc1c(-c2[nH]c3sc(N4CCNC[C@H]4C)nc3c2C(C)C)cn2ncnc2c1C [Example 308, (R)-5-(7,8-dimethyl-[1,2,4]triazolo[1,5-a]pyridin-6-yl)-6-isopropyl-2-(2-methylpiperazin-1-yl)-4H-pyrrolo[3,2-d]thiazole, HCl]",0.18,15800,0.09
"Cc1c(-c2[nH]c3sc(N4C[C@@H](C)NC[C@@H]4C)nc3c2C(C)C)cn2ncnc2c1C [Example 309, 5-(7,8-dimethyl-[1,2,4]triazolo[1,5-a]pyridin-6-yl)-2-((2S,5R)-2,5-dimethylpiperazin-1-yl)-6-isopropyl-4H-pyrrolo[3,2-d]thiazole]",6.67,14400,4.19
"Cc1c(-c2[nH]c3sc(N4CCNC[C@@H]4C)nc3c2C(C)C)cn2ncnc2c1C [Example 310, (S)-5-(7,8-dimethyl-[1,2,4]triazolo[1,5-a]pyridin-6-yl)-6-isopropyl-2-(2-methylpiperazin-1-yl)-4H-pyrrolo[3,2-d]thiazole]",1.45,19300,0.43
"Cc1c(-c2[nH]c3sc(N4CCN(CC5CCOCC5)C[C@H]4C)nc3c2C(C)C)cn2ncnc2c1C [Example 317, (R)-5-(7,8-dimethyl-[1,2,4]triazolo[1,5-a]pyridin-6-yl)-6-isopropyl-2-(2-methyl-4-((tetrahydro-2H-pyran-4-yl)methyl)piperazin-1-yl)-4H-pyrrolo[3,2-d]thiazole]",9.47,44400,4.22
"Cc1c(-c2[nH]c3sc(N4CCN(C5CCOCC5)C[C@H]4C)nc3c2C(C)C)cn2ncnc2c1C [Example 318, (R)-5-(7,8-dimethyl-[1,2,4]triazolo[1,5-a]pyridin-6-yl)-6-isopropyl-2-(2-methyl-4-(tetrahydro-2H-pyran-4-yl)piperazin-1-yl)-4H-pyrrolo[3,2-d] thiazole]",6.23,21600,0.83
"Cc1c(-c2[nH]c3sc(N4CCN(C)C[C@H]4C)nc3c2C(C)C)cn2ncnc2c1C [Example 319, (R)-5-(7,8-dimethyl-[1,2,4]triazolo[1,5-a]pyridin-6-yl)-2-(2,4-dimethylpiperazin-1-yl)-6-isopropyl-4H-pyrrolo[3,2-d]thiazole]",3.84,19400,0.53
"CCN1CCN(c2nc3c(C(C)C)c(-c4cn5ncnc5c(C)c4C)[nH]c3s2)[C@H](C)C1 [Example 320, (R)-5-(7,8-dimethyl-[1,2,4]triazolo[1,5-a]pyridin-6-yl)-2-(4-ethyl-2-methylpiperazin-1-yl)-6-isopropyl-4H-pyrrolo[3,2-d]thiazole]",4.38,21900,1.3
Cc1c(-c2[nH]c3sc(N4CCN(C5CCC5)C[C@H]4C)nc3c2C(C)C)cn2ncnc2c1C [Example 323],22.4,> 50000,3.86
Cc1c(-c2[nH]c3sc(N4CCN(C5CCN(C(C)C)CC5)C[C@H]4C)nc3c2C(C)C)cn2ncnc2c1C [Example 324],6.96,6240,2.26
